Target: T1, MhTHL (Megasphaera hexanoica, UniProt A0A848BQU5, C88S)
T1 construct: gene HF872_02440; tetramerization motif
Assay: X-ray crystal structure, […] Å
Assay type: binding
Details: crystals soaked in 25 mM hexanoyl-CoA for 5 min, pH 7.5; the bound ligand is deacylated CoA; active site

T1 sequence (A0A848BQU5 entry or part of it C88S): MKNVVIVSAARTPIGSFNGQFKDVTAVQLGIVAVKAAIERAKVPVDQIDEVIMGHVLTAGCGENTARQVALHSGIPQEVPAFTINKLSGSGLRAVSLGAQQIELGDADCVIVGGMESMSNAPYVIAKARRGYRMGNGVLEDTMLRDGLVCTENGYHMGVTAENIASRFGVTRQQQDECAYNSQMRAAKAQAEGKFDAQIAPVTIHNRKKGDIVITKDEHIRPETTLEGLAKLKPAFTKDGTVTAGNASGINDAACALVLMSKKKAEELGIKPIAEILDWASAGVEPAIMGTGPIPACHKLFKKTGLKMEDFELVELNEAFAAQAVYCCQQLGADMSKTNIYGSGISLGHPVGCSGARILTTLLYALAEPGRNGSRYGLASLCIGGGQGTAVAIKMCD

CC(C)(COP(=O)(O)OP(=O)(O)OC[C@H]1O[C@@H](n2cnc3c(N)ncnc32)[C@H](O)[C@@H]1OP(=O)(O)O)[C@@H](O)C(=O)NCCC(=O)NCCS [CoA]
X-ray crystal structure, 1.64 Å: a deacylated CoA molecule was bound to MhTHL in the mF observed‐DF calculated electron density map
